{"source": "PubChem BioAssay AID1996"}
{"conditions": "buffer; pH 7.4; 200.0 µM", "units": {"solubility kinetic": "µg/mL"}}
{"smiles": "CCOC(=O)c1c(C)[nH]c(C)c1C(=O)COC(=O)c1ccc(O)cc1", "solubility kinetic": "> 51.8"}
{"smiles": "O=C1CCCN1CCCNS(=O)(=O)c1ccc(F)cc1F", "solubility kinetic": "> 47.8"}
{"smiles": "CC(NS(=O)(=O)c1ccc2c(c1)CC(=O)N2C)c1ccccc1", "note": "(stereo unspecified)", "solubility kinetic": "> 49.6"}
{"smiles": "O=C(COC(=O)c1cncc(Br)c1)NC1CCCCC1", "solubility kinetic": 46.6}
{"smiles": "CCc1c(C(=O)NCCc2cccc(C)c2)[nH]c(C)c1C(C)=O", "solubility kinetic": 5}
{"smiles": "Cc1cc(C)c(S(=O)(=O)c2ccccc2Cl)c(=O)[nH]1", "solubility kinetic": 42.2}
{"smiles": "COc1ccc(CN2C(=O)CCCc3ccccc32)cc1", "solubility kinetic": "> 42.2"}
{"smiles": "CCOc1ncccc1C(=O)NCCc1ccc(Cl)cc1", "solubility kinetic": 33.7}
{"smiles": "O=C(c1cccs1)N1CCN(c2ccccc2)CC1", "solubility kinetic": "> 40.9"}
{"smiles": "CC(=O)Nc1ccc(C(=O)COC(=O)c2cc(C)oc2C)c(F)c1", "solubility kinetic": 7.8}
{"smiles": "CCOC(=O)C(=O)c1c(-c2ccc(C)cc2)nc2ccccn12", "solubility kinetic": "> 46.3"}
{"smiles": "O=C(c1ccccc1)C1CCN(C(=O)c2c(F)cccc2F)CC1", "solubility kinetic": "> 49.4"}
{"smiles": "N#Cc1ccsc1NC(=O)CCN1C(=O)C2CCCCC2C1=O", "note": "(stereo unspecified)", "solubility kinetic": "> 49.7"}
{"smiles": "Cn1c(=O)c2c(ncn2CCC(=O)N/N=C/c2ccccc2)n(C)c1=O", "solubility kinetic": "> 53.2"}
{"smiles": "O=C(NCc1cccnc1)c1cccs1", "solubility kinetic": "> 32.7"}
{"smiles": "CC1=C(C(=O)OCCC(C)C)C(c2ccc3c(c2)OCO3)NC(=O)N1", "note": "(stereo unspecified)", "solubility kinetic": 6.2}
{"smiles": "N#Cc1nc(-c2cccc3ccccc23)oc1NCC1CCCO1", "note": "(stereo unspecified)", "solubility kinetic": 3.3}
{"smiles": "Cc1ccc(OCC(=O)NCCCNC(=O)COc2ccc(C)cc2)cc1", "solubility kinetic": 15.1}
{"smiles": "CCCCN(C(=O)c1cnccn1)c1c(N)n(CCC)c(=O)[nH]c1=O", "solubility kinetic": 46.9}
{"smiles": "CC(=O)c1ccccc1NC(=O)CSc1n[nH]c(=O)n1C1CC1", "solubility kinetic": "> 49.9"}
{"smiles": "CN(C)C(=O)Oc1cccc([N+](C)(C)C)c1.[Br-]", "solubility kinetic": "> 45.5"}
{"smiles": "Cn1c(=O)c2c(nc(Oc3cccc(O)c3)n2C)n(C)c1=O", "solubility kinetic": "> 45.3"}
{"smiles": "Cc1cc(C)n(-c2ccc(C(=O)N3CC(C)OC(C)C3)cc2)n1", "note": "(stereo unspecified)", "solubility kinetic": "> 47"}
{"smiles": "CC(CN1CCCCC1)OC(=O)c1cccc(F)c1.Cl", "note": "(stereo unspecified)", "solubility kinetic": 42.4}
{"smiles": "C=C1N(C)c2cc([N+](=O)[O-])c(N)cc2C1(C)C", "solubility kinetic": "> 35"}
{"smiles": "CCNC(=O)COC(=O)c1cc(C)n(-c2ccccc2)c1C", "solubility kinetic": "> 45.1"}
{"smiles": "O=C(Nc1cccc(N2C(=O)C=CC2=O)c1)c1cccs1", "solubility kinetic": "> 44.7"}
{"smiles": "O=C1N(c2ccccc2)CCN1c1ccccc1", "solubility kinetic": "< 0.3"}
{"smiles": "Cc1cc(C(=O)NCCc2ccc(S(N)(=O)=O)cc2)c(C)o1", "solubility kinetic": "> 48.4"}
{"smiles": "COc1ccccc1C(=O)Nc1ccc(Br)c2cccnc12", "solubility kinetic": "< 0.4"}
{"smiles": "Brc1cnc2nc(SC/C=C/c3ccccc3)[nH]c2c1", "solubility kinetic": 0.3}
{"smiles": "Cc1cc(Cl)ccc1NC(=S)NC1CCCC1", "solubility kinetic": 18.1}
{"smiles": "Cc1ccc(NC(=O)NCC(c2ccccc2)N(C)C)cc1", "note": "(stereo unspecified)", "solubility kinetic": "> 44.6"}
{"smiles": "COC(=O)c1cc(C(=O)CC(C)C)c[nH]1", "solubility kinetic": "> 31.4"}
{"smiles": "CCOC(=O)/C(C#N)=C1/C=C(C)c2ccccc2N1", "solubility kinetic": 0.4}
{"smiles": "CN(Cc1ccccc1)C(=O)c1cc2cc(F)ccc2[nH]1", "solubility kinetic": 1}
{"smiles": "CC(c1ccccc1)C1CC(=O)N(c2cc(Cl)ccn2)C1=O", "note": "(stereo unspecified)", "solubility kinetic": "> 47.2"}
{"smiles": "Nc1ccc2c(c1)C(=O)c1ccccc1-2", "solubility kinetic": 27.9}
{"smiles": "C=C1c2cc(C)c(C)cc2NC(=O)N1c1ccccc1", "solubility kinetic": 24.4}
{"smiles": "OC(C#CCN1CCCC1)(c1ccccc1)c1cccnc1", "note": "(stereo unspecified)", "solubility kinetic": "> 43.9"}
{"smiles": "COc1ccc(CN(C)C2CCN(C)CC2)cc1OC", "solubility kinetic": 38.3}
{"smiles": "Cl.Nc1ccc(Cc2ccccn2)cc1", "solubility kinetic": "> 38.6"}
{"smiles": "CCSc1ncc(Cl)c(C(=O)Nc2ccccc2Cl)n1", "solubility kinetic": "< 0.2"}
{"smiles": "CN(C)c1nc(N(C)C)nc(N2CC(CCl)OC2=N)n1", "note": "(stereo unspecified)", "solubility kinetic": "> 45"}
{"smiles": "Cc1nc2c(cnn2-c2ccccc2)c(=O)[nH]1", "solubility kinetic": "> 33.9"}
{"smiles": "COc1ccc(NC(=O)CSc2nc3ccccc3c(=O)n2C)cc1", "solubility kinetic": "< 0.3"}
{"smiles": "O=C(NCCc1ccccc1)C1CC(=O)N(C2CCCC2)C1", "note": "(stereo unspecified)", "solubility kinetic": "> 45.1"}
{"smiles": "O=C(NCCCNC(=O)c1cc(Cl)ccc1Cl)c1ccco1", "solubility kinetic": 44.3}
{"smiles": "COc1cccc(NC(=O)c2cnc[nH]2)c1", "solubility kinetic": 30.5}
{"smiles": "Cc1ccc(NC(=O)C(C)N2C(=O)c3ccccc3C2=O)c(C)c1", "note": "(stereo unspecified)", "solubility kinetic": 29.7}
{"smiles": "CC1(C)CC(NC(=O)c2ccccc2)CC(C)(C)N1", "solubility kinetic": "> 39.1"}
{"smiles": "C=CCN=C1CC(C)(C)C(C(=O)OC)C(O)=C1C(=O)CCC", "note": "(stereo unspecified)", "solubility kinetic": "> 46.1"}
{"smiles": "CCN(C(=O)CSc1ncccn1)C1CCS(=O)(=O)C1", "note": "(stereo unspecified)", "solubility kinetic": "> 47.3"}
{"smiles": "O=c1[nH]c(=S)[nH]c2sc3c(c12)CCCCCC3", "solubility kinetic": 26.2}
{"smiles": "O=C(c1ccc([N+](=O)[O-])cc1)N1C=CC(C(F)(F)F)=NCC1", "solubility kinetic": "> 47"}
{"smiles": "CCOc1ccccc1OCCCC(=O)Nc1cc(S(=O)(=O)N2CCOCC2)ccc1OC", "solubility kinetic": 11.1}
{"smiles": "N#CCN1CCCC(C(N)=O)C1", "note": "(stereo unspecified)", "solubility kinetic": 19.6}
{"smiles": "COc1ccc(CNc2ccccn2)c(O)c1", "solubility kinetic": "> 34.5"}
{"smiles": "COc1ccc(CN(C)C(=S)Nc2ccc(Cl)cc2)cc1", "solubility kinetic": 13.5}
{"smiles": "OCCC1CN(Cc2cccnc2)CCN1CCc1ccccc1", "note": "(stereo unspecified)", "solubility kinetic": 42.4}
{"smiles": "NC(=O)/C(=C\\c1cccnc1)NC(=O)c1ccccc1", "solubility kinetic": "> 40.1"}
